Results published in PMC6270163, “Anti-inflammatory Lignans from the Fruits of Acanthopanax sessiliflorus” (Molecules, 2012).
Read-outs that look alike come from different tables or passages of the source.

Columns and labels:
[1] = system: LPS-induced NO production in RAW 264.7 macrophage cells; experiment: Inhibition of LPS-induced NO production (nitrite, Griess reagent); settings: pretreated 1 h with compounds, then LPS (1 μg/mL) for 24 h, mean ± SD, three independent experiments
Description: Assays for NO production and cell viability were carried out as previously described [23]. […] The plates were pretreated with various concentrations of samples for 30 min and incubated with LPS (1 μg/mL) for 24 h. The amount of NO was determined by the nitrite concentration in cultured RAW264.7 macrophage supernatants using the Griess reagent. The cell viability was evaluated by MTT reduction.

[2] = Cell viability by MTT reduction; settings: mouse
RAW 264.7 macrophages = experiment: Cell viability by MTT reduction; settings: for Cell toxicity / influence on cell viability (in words): RAW 264.7 cells treated with compounds
[3] = read-out: IC50 (concentration that caused 50% inhibition of NO production), LPS-activated RAW 264.7 macrophage cells
[4] = Mus musculus, RAW264.7, read-out: IC50 (concentration that caused 50% inhibition of NO production), LPS-activated RAW 264.7 macrophage cells

Molecule	IC50 [1, 3] [µM]	viability at 24 h, 100 µM ([2]; RAW 264.7 macrophages) [%]	IC50 [1, 4] [µM]	viability at 24 h, 100 µM [2] [%]	Cell toxicity / influence on cell viability (in words) (RAW 264.7 macrophages)	Cell viability (%) (RAW 264.7 macrophages; RAW 264.7 cells, at a concentration of 100 μM, MTT reduction, mean ± SD, three independent experiments)
(+)-pinoresinol [Compound 5]	10.3 ± 2.37	–	–	–	–	–
COc1cc([C@H]2OC[C@@H]3[C@H]2CO[C@H]3c2ccc3c(c2)OCO3)ccc1O [Compound 6, (+)-piperitol]	–	84.1 ± 2.46	22.3 ± 1.1	–	–	–
COc1cc([C@H]2OC[C@H]3[C@@H]2CO[C@@H]3c2cc(OC)c(O[C@@H]3O[C@H](CO)[C@@H](O)[C@H](O)[C@H]3O)c(OC)c2)cc(OC)c1O [Compound 8, acanthoside B]	–	–	–	82.4 ± 1.27	–	–
c1cc2c(cc1[C@@H]1OCC3C1CO[C@H]3c1ccc3c(c1)OCO3)OCO2 (single isomer, unassigned; (-)) [Compound 2, (−)-sesamin]	38.9 ± 2.86	–	49.9 to 65.1	95.5 ± 2.01	–	–
O=C1OC[C@H](Cc2ccc3c(c2)OCO3)[C@H]1Cc1ccc2c(c1)OCO2 [Compound 3, (−)-hinokinin]	–	50.2 ± 1.55	21.6 ± 1.19	–	Some cell toxicity was observed	–
COc1cc([C@H]2OC[C@H]3[C@@H]2CO[C@@H]3c2ccc3c(c2)OCO3)ccc1O[C@@H]1O[C@H](CO)[C@@H](O)[C@H](O)[C@H]1O [Compound 9, simlexoside]	–	54.5 ± 2.21	53 ± 2.75	–	Some cell toxicity was observed	–
COc1cc([C@H]2OC[C@H]3[C@@H]2CO[C@@H]3c2ccc3c(c2)OCO3)ccc1O [Compound 7, (+)-xanthoxylol]	21.6 ± 1.28	88.4 ± 3.71	27.6	–	–	–
COc1cc(OC)cc([C@@H](O)[C@H]2COC[C@@H]2Cc2ccc(O)c(O)c2)c1 [Compound 1, 3-(3',4'-dihydroxybenzyl)-4-[(7S),7-hydroxy-3,5-dimethoxybenzyl]tetrahydrofuran]	–	84.8 ± 2.71	49.9 ± 6.56	–	–	–
N=C(N)NN [Aminoguanidine, reference compound]	6.51 ± 1.15	–	–	–	–	84.61 ± 2.50
